We go through 2 molecules from patent US20130245075A1, “MELANOGENESIS INHIBITION-METHODS AND COMPOSITIONS THEREOF” (priority 2012, published 2013).

Each structure is given as a SMILES string. ≈ marks a conversion by molar mass, not a printed value.

The experiment concerns B16 F1 mouse melanoma cells. The experiment is described as follows: Melanogenesis inhibition: intracellular melanin in α-MSH/cAMP-induced B16F1 cells. The experiment is classed as cell-based. To be noted: B16-F1, 216 h, melanin induced by α-MSH/cAMP, 9 days treatment, melanin extracted by 1N NaOH, absorbance 405 nm, read-out: IC50 (inhibition of melanin formation). The protocol: The intracellular melanin in B16 F1 mouse melanoma cells treated with varying concentrations of the sample is extracted by 1N NaOH. The brown colored melanin thus extracted is estimated at 405 nm. This brown color intensity of the melanin is quenched in the presence of the inhibitor. B16F1 mouse melanoma cells are cultured for 24 hours in a 6 well microtiter plate at a seeding density of 5000 cells per well. Melanin production is induced by α-MSH/cAMP after which the cells are treated with varying non-cytotoxic concentrations of the sample over a period of 9 days with sample treatment at regular intervals of 3 days. The melanin is extracted by 1N NaOH and the absorbance read at 405 nm in a Microplate reader. The inhibitory effect of the sample is calculated based on the degree of inhibition of melanin formation. The results are expressed as IC50 values using Graph pad prism software. The percentage of inhibition of melanin is calculated as follows % Inhibition=C−T/C×100 Where, C-absorbance due to melanin in untreated cells; T-absorbance due to melanin in sample treated cells

As to `O=c1cc(CO)occ1O` [Kojic acid], the IC50 was found to be 100 µg/mL (≈ 704 µM).

For the molecule `COc1cc(/C=C/C(=O)N2CCC=CC2=O)cc(OC)c1OC` [piperlongumine], the IC50 stood at 0.625 µg/mL (≈ 1.97 µM).
